# Test results taken from ChEMBL document CHEMBL3885881, “DrugMatrix”.
# Starred links: 1 amine or outer side, 2 acyl side, 3 side chain; linkers in the order of their positions; H or OH if unused. Positions of bridges follow the written chain, without caps; N, C: chain ends. Non-standard residues stand in square brackets, D forms with d. Residues, ends and D or L forms follow the SMILES beside them. Chains are numbered I, II in the order given. Actinocin(9to1) = Cc1c2oc3c(C)ccc(C(=O)[*:1])c3nc-2c(C(=O)[*:2])c(N)c1=O; NMeV = CN[C@H](C(=O)O)C(C)C; Sar = CNCC(=O)O
# Species on record: Rattus norvegicus
# Experiment: DrugMatrix - Regimen: Daily Repeat
# Assay type: toxicity, organism-based, Sprague-Dawley
# Parameters: regimen Daily Repeat, gender Male, age 6-8 weeks
# Conditions: in vivo, iv, vehicle 100 % SALINE; for ABSOLUTE BASOPHIL / ABSOLUTE EOSINOPHIL / ABSOLUTE LYMPHOCYTE / ABSOLUTE MONOCYTE / ABSOLUTE SEGMENTED NEUTROPHIL / BASOPHIL / EOSINOPHIL / ERYTHROCYTE COUNT / HEMATOCRIT / HEMOGLOBIN / LEUKOCYTE COUNT / LYMPHOCYTE / MEAN CORPUSCULAR HEMOGLOBIN / MEAN CORPUSCULAR HEMOGLOBIN CONCENTRATION / MEAN CORPUSCULAR VOLUME / MONOCYTE / NEUTROPHIL / NUCLEATED RED BLOOD CELLS / PLATELET COUNT: tissue Blood; for ALANINE AMINOTRANSFERASE / ALBUMIN / ALKALINE PHOSPHATASE / ASPARTATE AMINOTRANSFERASE / BLOOD UREA NITROGEN / CARBON DIOXIDE / CHLORIDE / CHOLESTEROL / CREATINE PHOSPHOKINASE / CREATININE / GLUCOSE / LACTATE DEHYDROGENASE / LIPASE / PHOSPHORUS / POTASSIUM / SODIUM / TOTAL BILIRUBIN / TOTAL PROTEIN / URIC ACID: tissue Plasma
# [1] = 0 mg/kg, 72 h, dose level Control, time 3 day
# [2] = 0 mg/kg, 120 h, dose level Control, time 5 day
# [3] = 0.006 mg/kg, 72 h, dose level Low, time 3 day
compound,measurement,setting,value
"Cc1c2oc3c(C)ccc(C(=O)N[C@@H]4C(=O)N[C@H](C(C)C)C(=O)N5CCC[C@H]5C(=O)N(C)CC(=O)N(C)[C@@H](C(C)C)C(=O)O[C@@H]4C)c3nc-2c(C(=O)N[C@@H]2C(=O)N[C@H](C(C)C)C(=O)N3CCC[C@H]3C(=O)N(C)CC(=O)N(C)[C@@H](C(C)C)C(=O)O[C@@H]2C)c(N)c1=O [DACTINOMYCIN] (I: T[dV]P[Sar][NMeV] / II: T[dV]P[Sar][NMeV]; ester I:1-I:C, II:1-II:C; linker I:N-II:N via Actinocin(9to1))",ABSOLUTE BASOPHIL,[1],0 CELLS/uL
same,ABSOLUTE EOSINOPHIL,[1],33.67 CELLS/uL
same,ABSOLUTE LYMPHOCYTE,[1],12123.5 CELLS/uL
same,ABSOLUTE MONOCYTE,[1],243.5 CELLS/uL
same,ABSOLUTE SEGMENTED NEUTROPHIL,[1],1282.67 CELLS/uL
same,BASOPHIL,[1],0%
same,EOSINOPHIL,[1],0.33%
same,ERYTHROCYTE COUNT,[1],5.18 x10E6/uL
same,HEMATOCRIT,[1],32.63%
same,HEMOGLOBIN,[1],12.87 G/DL
same,LEUKOCYTE COUNT,[1],13.68 x10E3/uL
same,LYMPHOCYTE,[1],88.67%
same,MEAN CORPUSCULAR HEMOGLOBIN,[1],24.98 pg
same,MEAN CORPUSCULAR HEMOGLOBIN CONCENTRATION,[1],39.48 G/DL
same,MEAN CORPUSCULAR VOLUME,[1],63.23 fL
same,MONOCYTE,[1],1.83%
same,NEUTROPHIL,[1],9.17%
same,NUCLEATED RED BLOOD CELLS,[1],0.17 /100WBC
same,PLATELET COUNT,[1],1114.5 x10E3/uL
same,ALANINE AMINOTRANSFERASE,[1],46.17 u/L
same,ALBUMIN,[1],4.15 G/DL
same,ALKALINE PHOSPHATASE,[1],374.67 u/L
same,ASPARTATE AMINOTRANSFERASE,[1],89.33 u/L
same,BLOOD UREA NITROGEN,[1],14.83 mg/dL
same,CARBON DIOXIDE,[1],25.67 mmol/L
same,CHLORIDE,[1],101.17 MEQ/L
same,CHOLESTEROL,[1],63.5 mg/dL
same,CREATINE PHOSPHOKINASE,[1],494.67 u/L
same,CREATININE,[1],0.17 mg/dL
same,GLUCOSE,[1],163 mg/dL
same,LACTATE DEHYDROGENASE,[1],269.33 u/L
same,LIPASE,[1],10.67 u/L
same,PHOSPHORUS,[1],11.27 mg/dL
same,POTASSIUM,[1],5.85 MEQ/L
same,SODIUM,[1],141.68 MEQ/L
same,TOTAL BILIRUBIN,[1],0.18 mg/dL
same,TOTAL PROTEIN,[1],5.87 G/DL
same,URIC ACID,[1],1.28 mg/dL
same,ABSOLUTE BASOPHIL,[2],0 CELLS/uL
same,ABSOLUTE EOSINOPHIL,[2],24.67 CELLS/uL
same,ABSOLUTE LYMPHOCYTE,[2],11832.83 CELLS/uL
same,ABSOLUTE MONOCYTE,[2],279.67 CELLS/uL
same,ABSOLUTE SEGMENTED NEUTROPHIL,[2],1446.17 CELLS/uL
same,BASOPHIL,[2],0%
same,EOSINOPHIL,[2],0.17%
same,ERYTHROCYTE COUNT,[2],5.61 x10E6/uL
same,HEMATOCRIT,[2],35.02%
same,HEMOGLOBIN,[2],13.82 G/DL
same,LEUKOCYTE COUNT,[2],13.58 x10E3/uL
same,LYMPHOCYTE,[2],87.67%
same,MEAN CORPUSCULAR HEMOGLOBIN,[2],24.68 pg
same,MEAN CORPUSCULAR HEMOGLOBIN CONCENTRATION,[2],39.5 G/DL
same,MEAN CORPUSCULAR VOLUME,[2],62.42 fL
same,MONOCYTE,[2],2%
same,NEUTROPHIL,[2],10.17%
same,NUCLEATED RED BLOOD CELLS,[2],0 /100WBC
same,PLATELET COUNT,[2],1178.17 x10E3/uL
same,ALANINE AMINOTRANSFERASE,[2],52.83 u/L
same,ALBUMIN,[2],4.12 G/DL
same,ALKALINE PHOSPHATASE,[2],370 u/L
same,ASPARTATE AMINOTRANSFERASE,[2],100.5 u/L
same,BLOOD UREA NITROGEN,[2],15.17 mg/dL
same,CARBON DIOXIDE,[2],28.83 mmol/L
same,CHLORIDE,[2],101 MEQ/L
same,CHOLESTEROL,[2],69.5 mg/dL
same,CREATINE PHOSPHOKINASE,[2],488.67 u/L
same,CREATININE,[2],0.23 mg/dL
same,GLUCOSE,[2],165 mg/dL
same,LACTATE DEHYDROGENASE,[2],502.17 u/L
same,LIPASE,[2],11 u/L
same,PHOSPHORUS,[2],11.7 mg/dL
same,POTASSIUM,[2],5.85 MEQ/L
same,SODIUM,[2],142.45 MEQ/L
same,TOTAL BILIRUBIN,[2],0.18 mg/dL
same,TOTAL PROTEIN,[2],5.85 G/DL
same,URIC ACID,[2],1.43 mg/dL
same,ABSOLUTE BASOPHIL,[3],0 CELLS/uL
same,ABSOLUTE EOSINOPHIL,[3],0 CELLS/uL
same,ABSOLUTE LYMPHOCYTE,[3],7777.33 CELLS/uL
same,ABSOLUTE MONOCYTE,[3],151.33 CELLS/uL
same,ABSOLUTE SEGMENTED NEUTROPHIL,[3],1138 CELLS/uL
same,BASOPHIL,[3],0%
same,EOSINOPHIL,[3],0%
same,ERYTHROCYTE COUNT,[3],5.68 x10E6/uL
same,HEMATOCRIT,[3],35.57%
same,HEMOGLOBIN,[3],13.43 G/DL
same,LEUKOCYTE COUNT,[3],9.07 x10E3/uL
same,LYMPHOCYTE,[3],85.67%
same,MEAN CORPUSCULAR HEMOGLOBIN,[3],23.67 pg
same,MEAN CORPUSCULAR HEMOGLOBIN CONCENTRATION,[3],37.77 G/DL
same,MEAN CORPUSCULAR VOLUME,[3],62.63 fL
same,MONOCYTE,[3],1.67%
same,NEUTROPHIL,[3],12.67%
same,NUCLEATED RED BLOOD CELLS,[3],0 /100WBC
same,PLATELET COUNT,[3],1053 x10E3/uL
same,ALANINE AMINOTRANSFERASE,[3],49.33 u/L
same,ALBUMIN,[3],4.33 G/DL
same,ALKALINE PHOSPHATASE,[3],363.33 u/L
same,ASPARTATE AMINOTRANSFERASE,[3],85.33 u/L
same,BLOOD UREA NITROGEN,[3],14 mg/dL
same,CARBON DIOXIDE,[3],26 mmol/L
same,CHLORIDE,[3],101.67 MEQ/L
same,CHOLESTEROL,[3],85.33 mg/dL
same,CREATINE PHOSPHOKINASE,[3],333 u/L
same,CREATININE,[3],0.25 mg/dL
same,GLUCOSE,[3],155.67 mg/dL
same,LACTATE DEHYDROGENASE,[3],134 u/L
same,LIPASE,[3],11 u/L
same,PHOSPHORUS,[3],10.57 mg/dL
same,POTASSIUM,[3],6.37 MEQ/L
same,SODIUM,[3],143.37 MEQ/L
same,TOTAL BILIRUBIN,[3],0.3 mg/dL
same,TOTAL PROTEIN,[3],6.17 G/DL
same,URIC ACID,[3],1.6 mg/dL
